From ChEMBL document CHEMBL3525951, “Reevaluation of the microsomal metabolism of montelukast: major contribution by CYP2C8 at clinically relevant concentrations” (Drug Metab Dispos, 2011)

T1: Cytochrome P450 2C8 (Homo sapiens, UniProt P10632)
T1 sequence (P10632 whole entry): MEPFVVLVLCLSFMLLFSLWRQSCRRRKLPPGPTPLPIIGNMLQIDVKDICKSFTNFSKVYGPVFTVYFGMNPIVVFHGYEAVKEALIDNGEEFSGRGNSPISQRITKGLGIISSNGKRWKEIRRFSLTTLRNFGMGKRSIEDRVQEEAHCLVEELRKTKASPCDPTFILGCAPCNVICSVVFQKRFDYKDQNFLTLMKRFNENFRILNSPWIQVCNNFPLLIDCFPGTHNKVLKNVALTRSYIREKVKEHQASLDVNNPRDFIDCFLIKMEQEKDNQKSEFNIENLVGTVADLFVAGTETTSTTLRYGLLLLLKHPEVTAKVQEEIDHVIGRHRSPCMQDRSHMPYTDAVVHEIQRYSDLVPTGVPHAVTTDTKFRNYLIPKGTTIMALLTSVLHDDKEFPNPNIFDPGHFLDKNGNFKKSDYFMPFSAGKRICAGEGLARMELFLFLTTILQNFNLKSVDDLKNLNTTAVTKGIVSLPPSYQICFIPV

T2: Cytochrome P450 2B6 (Homo sapiens, UniProt P20813)
T2 sequence (P20813 whole entry): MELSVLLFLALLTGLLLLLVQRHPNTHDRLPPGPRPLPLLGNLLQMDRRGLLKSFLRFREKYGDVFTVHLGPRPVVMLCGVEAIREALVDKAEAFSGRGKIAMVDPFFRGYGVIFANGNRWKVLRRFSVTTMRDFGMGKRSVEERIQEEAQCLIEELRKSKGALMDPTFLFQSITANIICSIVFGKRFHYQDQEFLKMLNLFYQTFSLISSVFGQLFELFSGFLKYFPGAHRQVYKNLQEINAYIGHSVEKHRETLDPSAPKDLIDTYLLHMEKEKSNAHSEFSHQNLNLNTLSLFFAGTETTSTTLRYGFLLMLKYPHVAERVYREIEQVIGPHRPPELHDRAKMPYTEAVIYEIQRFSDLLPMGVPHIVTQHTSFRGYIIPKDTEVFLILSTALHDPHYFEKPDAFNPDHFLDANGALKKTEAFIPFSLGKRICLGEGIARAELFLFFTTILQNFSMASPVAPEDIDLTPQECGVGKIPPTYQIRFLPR

T3: Cytochrome P450 2A6 (Homo sapiens, UniProt P11509)
T3 sequence (P11509 whole entry): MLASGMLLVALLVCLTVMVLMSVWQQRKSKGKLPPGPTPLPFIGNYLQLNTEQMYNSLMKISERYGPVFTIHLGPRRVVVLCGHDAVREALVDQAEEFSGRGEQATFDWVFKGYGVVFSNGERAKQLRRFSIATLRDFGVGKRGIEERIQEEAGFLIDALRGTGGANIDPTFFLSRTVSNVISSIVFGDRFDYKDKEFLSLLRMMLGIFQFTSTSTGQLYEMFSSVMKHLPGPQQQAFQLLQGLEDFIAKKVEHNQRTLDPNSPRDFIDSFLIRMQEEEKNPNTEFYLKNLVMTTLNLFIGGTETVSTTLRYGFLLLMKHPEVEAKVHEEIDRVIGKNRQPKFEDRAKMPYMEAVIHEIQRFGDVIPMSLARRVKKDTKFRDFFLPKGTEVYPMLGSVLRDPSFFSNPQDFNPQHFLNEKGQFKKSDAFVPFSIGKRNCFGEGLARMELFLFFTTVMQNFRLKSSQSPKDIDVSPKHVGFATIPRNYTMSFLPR

T4: Cytochrome P450 1A2 (Homo sapiens, UniProt P05177)
T4 sequence (P05177 whole entry): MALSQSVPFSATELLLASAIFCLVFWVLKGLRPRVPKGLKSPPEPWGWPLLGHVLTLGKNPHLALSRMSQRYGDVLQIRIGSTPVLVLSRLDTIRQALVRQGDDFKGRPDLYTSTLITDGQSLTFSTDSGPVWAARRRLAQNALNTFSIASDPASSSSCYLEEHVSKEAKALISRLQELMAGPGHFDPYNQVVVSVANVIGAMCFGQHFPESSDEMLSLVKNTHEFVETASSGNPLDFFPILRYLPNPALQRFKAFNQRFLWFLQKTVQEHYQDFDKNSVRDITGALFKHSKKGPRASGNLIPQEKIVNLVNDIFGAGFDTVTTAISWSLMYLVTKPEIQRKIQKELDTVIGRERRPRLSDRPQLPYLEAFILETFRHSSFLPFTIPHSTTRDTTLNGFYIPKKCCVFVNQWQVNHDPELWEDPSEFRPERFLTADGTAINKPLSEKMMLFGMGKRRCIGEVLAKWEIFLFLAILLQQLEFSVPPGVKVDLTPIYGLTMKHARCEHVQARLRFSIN

B1: Cytochrome P450 2C9 (Homo sapiens) (protein)
chain: MDSLVVLVLCLSCLLLLSLWRQSSGRGKLPPGPTPLPVIGNILQIGIKDISKSLTNLSKVYGPVFTLYFGLKPIVVLHGYEAVKEALIDLGEEFSGRGIFPLAERANRGFGIVFSNGKKWKEIRRFSLMTLRNFGMGKRSIEDRVQEEARCLVEELRKTKASPCDPTFILGCAPCNVICSIIFHKRFDYKDQQFLNLMEKLNENIKILSSPWIQICNNFSPIIDYFPGTHNKLLKNVAFMKSYILEKVKEHQESMDMNNPQDFIDCFLMKMEKEKHNQPSEFTIESLENTAVDLFGAGTETTSTTLRYALLLLLKHPEVTAKVQEEIERVIGRNRSPCMQDRSHMPYTDAVVHEVQRYIDLLPTSLPHAVTCDIKFRNYLIPKGTTILISLTSVLHDNKEFPNPEMFDPHHFLDEGGNFKKSKYFMPFSAGKRICVGEALAGMELFLFLTSILQNFNLKSLVDPKNLDTTPVVNGFASVPPFYQLCFIPV

Legend:
[1] = system: Liver microsome; experiment: Drug level in human liver microsomes treated with montelukast at 0.02 to 0.4 uM preincubated for 3 mins followed by beta-NADPH addition by LC-MS analysis; type: ADME
[2] = target: T5, Cytochrome P450 2C9 (Homo sapiens, UniProt P11712); experiment: Activity of recombinant human CYP2C9 expressed in microsomes isolated from baculovirus infected insect cell assessed as enzyme-mediated compound formation treated with montelukast at 1 uM after 60 mins by LC-MS analysis; type: ADME; settings: 1 h
[3] = target: T6, Cytochrome P450 3A4 (Homo sapiens, UniProt P08684); experiment: Activity of recombinant human CYP3A4 expressed in microsomes isolated from baculovirus infected insect cell assessed as enzyme-mediated compound formation treated with montelukast at 1 uM after 60 mins by LC-MS analysis; type: ADME; settings: 1 h
T6 sequence (P08684 whole entry): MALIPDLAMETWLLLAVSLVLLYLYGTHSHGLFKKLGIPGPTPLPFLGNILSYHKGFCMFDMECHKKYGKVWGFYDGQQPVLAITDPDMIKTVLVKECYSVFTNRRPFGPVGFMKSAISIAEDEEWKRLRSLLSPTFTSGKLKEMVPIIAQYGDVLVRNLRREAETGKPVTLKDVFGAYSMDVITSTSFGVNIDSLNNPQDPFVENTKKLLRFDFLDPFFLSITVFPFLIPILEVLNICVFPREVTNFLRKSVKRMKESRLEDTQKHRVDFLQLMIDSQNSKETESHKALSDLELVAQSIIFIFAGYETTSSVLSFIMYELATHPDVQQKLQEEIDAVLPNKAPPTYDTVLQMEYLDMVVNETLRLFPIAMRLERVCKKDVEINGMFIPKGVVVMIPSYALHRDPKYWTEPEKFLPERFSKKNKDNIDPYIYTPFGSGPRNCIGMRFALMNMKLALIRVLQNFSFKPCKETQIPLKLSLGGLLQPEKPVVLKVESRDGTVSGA

[4] = target: T7, Cytochrome P450 3A5 (Homo sapiens, UniProt P20815); experiment: Activity of recombinant human CYP3A5 expressed in microsomes isolated from baculovirus infected insect cell assessed as enzyme-mediated compound formation treated with montelukast at 1 uM after 60 mins by LC-MS analysis; type: ADME; settings: 1 h
T7 sequence (P20815 whole entry): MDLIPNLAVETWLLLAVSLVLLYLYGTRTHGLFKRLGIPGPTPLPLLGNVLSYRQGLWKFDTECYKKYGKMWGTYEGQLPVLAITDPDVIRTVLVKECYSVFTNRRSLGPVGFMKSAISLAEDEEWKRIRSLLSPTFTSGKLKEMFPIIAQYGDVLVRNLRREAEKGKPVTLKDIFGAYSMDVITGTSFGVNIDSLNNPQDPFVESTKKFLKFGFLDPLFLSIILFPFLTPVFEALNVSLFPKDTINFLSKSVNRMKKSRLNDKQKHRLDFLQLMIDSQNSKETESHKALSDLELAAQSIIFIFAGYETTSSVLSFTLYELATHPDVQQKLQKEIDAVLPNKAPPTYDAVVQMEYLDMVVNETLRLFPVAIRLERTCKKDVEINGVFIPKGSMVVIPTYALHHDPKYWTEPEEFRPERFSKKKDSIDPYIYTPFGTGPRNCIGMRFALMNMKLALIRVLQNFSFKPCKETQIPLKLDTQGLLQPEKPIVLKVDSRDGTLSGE

[5] = target: T8, Cytochrome P450 2C19 (Homo sapiens, UniProt P33261); experiment: Activity of recombinant human CYP2C19 expressed in microsomes isolated from baculovirus infected insect cell assessed as enzyme-mediated compound formation treated with montelukast at 1 uM after 60 mins by LC-MS analysis; type: ADME; settings: 1 h
T8 sequence (P33261 whole entry): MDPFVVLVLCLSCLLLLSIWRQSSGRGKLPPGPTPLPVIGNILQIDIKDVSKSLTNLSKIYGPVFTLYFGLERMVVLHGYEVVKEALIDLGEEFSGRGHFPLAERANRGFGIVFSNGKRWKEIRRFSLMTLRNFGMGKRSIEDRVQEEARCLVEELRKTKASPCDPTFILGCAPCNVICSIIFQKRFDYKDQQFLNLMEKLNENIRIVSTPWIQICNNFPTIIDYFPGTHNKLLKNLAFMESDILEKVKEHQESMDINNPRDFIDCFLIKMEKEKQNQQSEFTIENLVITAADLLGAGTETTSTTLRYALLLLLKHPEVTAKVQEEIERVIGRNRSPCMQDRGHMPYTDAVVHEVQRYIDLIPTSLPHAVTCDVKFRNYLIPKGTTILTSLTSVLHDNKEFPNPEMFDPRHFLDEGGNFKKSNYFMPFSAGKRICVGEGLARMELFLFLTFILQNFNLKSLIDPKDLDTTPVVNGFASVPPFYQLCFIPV

[6] = target: T1, Cytochrome P450 2C8; experiment: Activity of recombinant human CYP2C8 expressed in microsomes isolated from baculovirus infected insect cell assessed as enzyme-mediated compound formation treated with montelukast at 0.02 to 0.1 uM after 3 mins by LC-MS analysis; type: ADME; settings: 0.05 h
[7] = target: T1, Cytochrome P450 2C8; experiment: Activity of recombinant human CYP2C8 expressed in microsomes isolated from baculovirus infected insect cell assessed as enzyme-mediated compound formation treated with montelukast at 0.02 to 1 uM after 60 mins by LC-MS analysis; type: ADME; settings: 1 h
[8] = target: T1, Cytochrome P450 2C8; experiment: Activity of recombinant human CYP2C8 expressed in microsomes isolated from baculovirus infected insect cell assessed as enzyme-mediated compound formation treated with 2-(1-(((1R)-1-(3-(2-(7-chloroquinolin-2-yl)vinyl)phenyl)-3-(2-(1,2-dihydroxypropan-2-yl)phenyl)propylthio)methyl)cyclopropyl)acetic acid at 0.02 uM after 30 mins by LC-MS analysis; type: ADME; settings: 0.5 h
[9] = target: T2, Cytochrome P450 2B6; experiment: (§1) Activity of recombinant human CYP2B6 expressed in microsomes isolated from baculovirus infected insect cell assessed as enzyme-mediated 2-(2-((R)-3-((1-(carboxymethyl)cyclopropyl)methylthio)-3-(3-(2-(7-chloroquinolin-2-yl)vinyl)phenyl)propyl)phenyl)-2-hydroxypropanoic acid formation at 1 uM after 30 mins by LC-MS analysis; type: ADME; settings: 0.5 h
[10] = target: T5, Cytochrome P450 2C9; experiment: Activity of recombinant human CYP2C9 expressed in microsomes isolated from baculovirus infected insect cell assessed as enzyme-mediated compound formation treated with montelukast at 0.02 to 0.1 uM after 12 mins by LC-MS analysis; type: ADME; settings: 0.2 h
[11] = target: T8, Cytochrome P450 2C19; experiment: as §1, with “CYP2C19” for “CYP2B6”; type: ADME; settings: 0.5 h
[12] = target: Cytochrome P450 2E1 (Homo sapiens, UniProt P05181); experiment: as §1, with “CYP2E1” for “CYP2B6”; type: ADME; settings: 0.5 h
Sequence of Cytochrome P450 2E1 (P05181 whole entry): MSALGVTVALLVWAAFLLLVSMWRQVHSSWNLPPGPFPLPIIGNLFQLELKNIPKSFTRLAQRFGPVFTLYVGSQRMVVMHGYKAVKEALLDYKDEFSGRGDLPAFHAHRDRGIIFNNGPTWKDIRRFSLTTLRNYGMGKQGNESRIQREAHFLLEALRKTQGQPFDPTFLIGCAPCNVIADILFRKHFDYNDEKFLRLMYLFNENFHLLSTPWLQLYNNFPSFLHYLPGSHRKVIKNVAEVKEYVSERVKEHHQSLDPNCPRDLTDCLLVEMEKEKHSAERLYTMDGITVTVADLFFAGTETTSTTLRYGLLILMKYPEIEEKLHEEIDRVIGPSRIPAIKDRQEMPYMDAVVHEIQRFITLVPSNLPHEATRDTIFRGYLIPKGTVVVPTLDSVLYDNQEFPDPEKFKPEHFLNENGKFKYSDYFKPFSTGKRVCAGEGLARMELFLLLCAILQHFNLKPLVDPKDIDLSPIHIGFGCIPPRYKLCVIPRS

[13] = target: T3, Cytochrome P450 2A6; experiment: as §1, with “CYP2A6” for “CYP2B6”; type: ADME; settings: 0.5 h
[14] = target: T6, Cytochrome P450 3A4; experiment: as §1, with “human CYP3A4” for “human CYP2B6”, “at 0.02” for “at 1”; type: ADME; settings: 0.5 h
[15] = target: Cytochrome P450 2D6 (Homo sapiens, UniProt P10635); experiment: as §1, with “CYP2D6” for “CYP2B6”; type: ADME; settings: 0.5 h
Sequence of Cytochrome P450 2D6 (P10635 whole entry): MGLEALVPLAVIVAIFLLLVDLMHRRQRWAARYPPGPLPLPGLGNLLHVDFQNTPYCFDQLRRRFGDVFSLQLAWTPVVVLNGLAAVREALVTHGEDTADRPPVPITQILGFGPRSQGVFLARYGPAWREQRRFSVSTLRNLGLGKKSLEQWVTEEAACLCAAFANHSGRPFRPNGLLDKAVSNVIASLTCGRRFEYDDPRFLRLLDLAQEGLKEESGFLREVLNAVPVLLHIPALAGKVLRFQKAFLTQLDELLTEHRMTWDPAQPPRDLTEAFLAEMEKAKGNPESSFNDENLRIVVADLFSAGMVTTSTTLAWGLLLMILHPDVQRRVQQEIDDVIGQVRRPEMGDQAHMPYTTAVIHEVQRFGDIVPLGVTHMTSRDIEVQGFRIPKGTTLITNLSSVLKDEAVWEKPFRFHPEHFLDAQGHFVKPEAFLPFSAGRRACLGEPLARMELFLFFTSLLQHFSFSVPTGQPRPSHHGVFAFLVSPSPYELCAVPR

[16] = target: T5, Cytochrome P450 2C9; experiment: as §1, with “human CYP2C9” for “human CYP2B6”, “at 0.02” for “at 1”; type: ADME; settings: 0.5 h
[17] = target: T4, Cytochrome P450 1A2; experiment: as §1, with “CYP1A2” for “CYP2B6”; type: ADME; settings: 0.5 h
[18] = target: T1, Cytochrome P450 2C8; experiment: as §1, with “human CYP2C8” for “human CYP2B6”, “at 0.02” for “at 1”; type: ADME; settings: 0.5 h
[19] = target: T7, Cytochrome P450 3A5; experiment: as §1, with “CYP3A5” for “CYP2B6”; type: ADME; settings: 0.5 h
[20] = substrate: CC(C)(O)c1ccccc1CC[C@@H](SCC1(CC(=O)O)CC1)c1cccc(/C=C/c2ccc3ccc(Cl)cc3n2)c1; experiment: cells, lysate or membranes named

| Molecule | Drug metabolism [1] | Drug metabolism [2] | Drug metabolism [3] | Drug metabolism [4] | Drug metabolism [6] | Drug metabolism [7] | also measured |
| --- | --- | --- | --- | --- | --- | --- | --- |
| CC(C)(O)c1ccccc1CC[C@H](c1cccc(/C=C/c2ccc3ccc(Cl)cc3n2)c1)[S+]([O-])CC1(CC(=O)O)CC1 (stereo not given in full) | metabolite_detected | – | – | – | – | – | – |
| CC(C)(O)c1cc(O)ccc1CC[C@@H](SCC1(CC(=O)O)CC1)c1cccc(/C=C/c2ccc3ccc(Cl)cc3n2)c1 | metabolite_detected | metabolite_detected | metabolite_detected | metabolite_detected | metabolite_detected | metabolite_detected | Drug metabolism [5]: metabolite_detected |
| CC(O)(C(=O)O)c1ccccc1CC[C@@H](SCC1(CC(=O)O)CC1)c1cccc(/C=C/c2ccc3ccc(Cl)cc3n2)c1 (stereo not given in full) | metabolite_detected | – | – | – | – | – | Drug metabolism [8]: metabolite_detected |
| CC(C)(O)c1ccccc1C(O)C[C@@H](SCC1(CC(=O)O)CC1)c1cccc(/C=C/c2ccc3ccc(Cl)cc3n2)c1 (stereo not given in full) | metabolite_detected | – | metabolite_detected | metabolite_detected | – | – | – |
| CC(O)(CO)c1ccccc1CC[C@@H](SCC1(CC(=O)O)CC1)c1cccc(/C=C/c2ccc3ccc(Cl)cc3n2)c1 (stereo not given in full) | metabolite_detected | metabolite_detected | – | – | metabolite_detected | metabolite_detected | Drug metabolism [9]: metabolite_not_detected; Drug metabolism [10]: metabolite_detected; Drug metabolism [11]: metabolite_not_detected; Drug metabolism [12]: metabolite_not_detected; Drug metabolism [13]: metabolite_not_detected; Drug metabolism [14]: metabolite_not_detected; Drug metabolism [15]: metabolite_not_detected; Drug metabolism [16]: metabolite_not_detected; Drug metabolism [17]: metabolite_not_detected; Drug metabolism [18]: metabolite_detected; Drug metabolism [19]: metabolite_not_detected |
| B1 | – | – | – | – | – | – | Km [20]: 0.19 µM; Vmax [20]: 1.1e-07 µmol/min |
